Several values for one entry are separate records, joined by “and”; a condition that tells them apart may be missing. Identical values can stand only once.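 Compound exposure: 48 hours, 5 concentrations, 96-well plates. Abbreviation: GI50, concentration required for 50% inhibition of growth.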 Activity calls are given as the source filed them. Cut-off read from the data, not from the text of the source: active = GI50 up to about 1.1 µM and inactive = higher.
Experiments:
Assay in all cases: NCI tumour cell line growth inhibition, 48 h
EKVX = tested on: EKVX
BT-549 = tested on: BT-549
NCI-H226 = tested on: NCI-H226
TK-10 = tested on: TK-10
COLO 205 = tested on: COLO 205
Hs-578T = tested on: Hs-578T
SW-620 = tested on: SW-620
OVCAR-3 = tested on: OVCAR-3
SK-MEL-2 = tested on: SK-MEL-2
HOP-92 = tested on: HOP-92
ACHN = tested on: ACHN
UACC-62 = tested on: UACC-62
CAKI-1 = tested on: CAKI-1
DU-145 = tested on: DU-145
NCI/ADR-RES = tested on: NCI/ADR-RES
IGROV-1 = tested on: IGROV-1
RPMI-8226 = tested on: RPMI-8226
M14 = tested on: M14
K562 = tested on: K562
SNB-19 = tested on: SNB-19
HCC 2998 = tested on: HCC 2998
SK-MEL-28 = tested on: SK-MEL-28
HCT-116 = tested on: HCT-116
NCI-H23 = tested on: NCI-H23
HL-60 = tested on: HL-60
OVCAR-4 = tested on: OVCAR-4
KM12 = tested on: KM12
MDA-N = tested on: MDA-N
SR = tested on: SR
A549 = tested on: A549
NCI-H522 = tested on: NCI-H522
MDA-MB-231 = tested on: MDA-MB-231
UO-31 = tested on: UO-31
SF-295 = tested on: SF-295
OVCAR-8 = tested on: OVCAR-8
MDA-MB-435 = tested on: MDA-MB-435
PC-3 = tested on: PC-3
CCRF-CEM = tested on: CCRF-CEM
SK-MEL-5 = tested on: SK-MEL-5
HCT-15 = tested on: HCT-15
SK-OV-3 = tested on: SK-OV-3
MOLT-4 = tested on: MOLT-4
SF-268 = tested on: SF-268
Malme-3M = tested on: Malme-3M
T47D = tested on: T47D
OVCAR-5 = tested on: OVCAR-5
U-251 = tested on: U-251
SN12C = tested on: SN12C
UACC-257 = tested on: UACC-257
A498 = tested on: A498
MCF7 = tested on: MCF7
786-0 = tested on: 786-0
LOX IMVI = tested on: LOX IMVI
HT-29 = tested on: HT-29
RXF 393 = tested on: RXF 393
HOP-62 = tested on: HOP-62
NCI-H460 = tested on: NCI-H460
SNB-75 = tested on: SNB-75

COC(=O)C1OC(O[C@H]2CC[C@]3(C)[C@H]4CC=C5[C@@H]6CC(C)(C)CC[C@]6(C(=O)OC6OCC(O)C(O)C6OC6OC(C)C(OC7OCC(O)C(OC8OCC(O)C(O)C8O)C7O)C(OC7OCC(O)C(O)C7O)C6O)CC[C@@]5(C)[C@]4(C)CC[C@H]3C2(C)C)C(O)C(OC2OCC(O)C(O)C2O)C1O (some centres undefined)
GI50 (EKVX): 3.74 µM (inactive) and 3.72 µM (inactive) | GI50 (BT-549): 3.01 µM (inactive) and 2.62 µM (inactive) | GI50 (NCI-H226): 2.9 µM (inactive) and 4.98 µM (inactive) | GI50 (TK-10): 7.35 µM (inactive) and 11.9 µM (inactive) | GI50 (COLO 205): 1.6 µM (inactive) and 1.52 µM (inactive) | GI50 (Hs-578T): 16.1 µM (inactive) and 19.7 µM (inactive) | GI50 (SW-620): 9.2 µM (inactive) and 8.04 µM (inactive) | GI50 (OVCAR-3): 9.25 µM (inactive) and 7.82 µM (inactive) | GI50 (SK-MEL-2): 2.22 µM (inactive) and 2.93 µM (inactive) | GI50 (HOP-92): 2.19 µM (inactive) and 2.25 µM (inactive) | GI50 (ACHN): 4.84 µM (inactive) and 4.03 µM (inactive) | GI50 (UACC-62): 3.08 µM (inactive) and 3.77 µM (inactive) | GI50 (CAKI-1): 5.24 µM (inactive) and 4.84 µM (inactive) | GI50 (DU-145): 5.79 µM (inactive) and 9.29 µM (inactive) | GI50 (NCI/ADR-RES): 5.11 µM (inactive) and 4.45 µM (inactive) | GI50 (IGROV-1): 7.41 µM (inactive) and 9.25 µM (inactive) | GI50 (RPMI-8226): 2.62 µM (inactive) and 4.37 µM (inactive) | GI50 (M14): 1.95 µM (inactive) and 2.25 µM (inactive) | GI50 (K562): 4.94 µM (inactive) and 3.94 µM (inactive) | GI50 (SNB-19): 7.01 µM (inactive) and 6.22 µM (inactive) | GI50 (HCC 2998): 1.78 µM (inactive) and 1.67 µM (inactive) | GI50 (SK-MEL-28): 2.37 µM (inactive) and 2.07 µM (inactive) | GI50 (HCT-116): 4.04 µM (inactive) and 4.85 µM (inactive) | GI50 (NCI-H23): 4.52 µM (inactive) and 3.81 µM (inactive) | GI50 (HL-60): 2.28 µM (inactive) and 1.97 µM (inactive) | GI50 (OVCAR-4): 6.61 µM (inactive) and 5.24 µM (inactive) | GI50 (KM12): 3.1 µM (inactive) and 3.08 µM (inactive) | GI50 (MDA-N): 2.02 µM (inactive) and 1.79 µM (inactive) | GI50 (SR): 1.75 µM (inactive) and 2.72 µM (inactive) | GI50 (A549): 3.17 µM (inactive) and 3.16 µM (inactive) | GI50 (NCI-H522): 1.95 µM (inactive) and 1.77 µM (inactive) | GI50 (MDA-MB-231): 2.73 µM (inactive) and 3.51 µM (inactive) | GI50 (UO-31): 2.01 µM (inactive) and 1.9 µM (inactive) | GI50 (SF-295): 5.19 µM (inactive) and 3.39 µM (inactive) | GI50 (OVCAR-8): 13.2 µM (inactive) and 10.4 µM (inactive) | GI50 (MDA-MB-435): 2.13 µM (inactive) and 2.14 µM (inactive) | GI50 (PC-3): 4.46 µM (inactive) and 4.32 µM (inactive) | GI50 (CCRF-CEM): 11.3 µM (inactive) and 10.6 µM (inactive) | GI50 (SK-MEL-5): 3.8 µM (inactive) and 2.52 µM (inactive) | GI50 (HCT-15): 14.1 µM and 27.4 µM | GI50 (SK-OV-3): 12.8 µM (inactive) and 16.6 µM (inactive) | GI50 (MOLT-4): 8.24 µM (inactive) and 4.91 µM (inactive) | GI50 (SF-268): 6.53 µM (inactive) and 8.45 µM (inactive) | GI50 (Malme-3M): 3.61 µM (inactive) and 5.04 µM (inactive) | GI50 (T47D): 3.45 µM (inactive) and 3.29 µM (inactive) | GI50 (OVCAR-5): 5.31 µM (inactive) and 4.75 µM (inactive) | GI50 (U-251): 7.41 µM (inactive) and 6.87 µM (inactive) | GI50 (SN12C): 2.25 µM (inactive) and 2.31 µM (inactive) | GI50 (UACC-257): 3.17 µM (inactive) and 2.91 µM (inactive) | GI50 (A498): 1.94 µM (inactive) and 1.66 µM (inactive) | GI50 (MCF7): 4.71 µM (inactive) and 3.27 µM (inactive) | GI50 (786-0): 5.01 µM (inactive) and 7.71 µM (inactive) | GI50 (LOX IMVI): 7.85 µM (inactive) and 5.43 µM (inactive) | GI50 (HT-29): 3.1 µM (inactive) and 2.9 µM (inactive)

CC1(C)COP(=S)(c2ccccn2)O[C@@H]1c1ccccc1 (some centres undefined)
GI50 (EKVX): > 100 µM (inactive) | GI50 (BT-549): > 100 µM (inactive) | GI50 (NCI-H226): 37.9 µM (inactive) | GI50 (TK-10): > 100 µM (inactive) | GI50 (RXF 393): 62.2 µM (inactive) | GI50 (HOP-62): > 100 µM (inactive) | GI50 (NCI-H460): > 100 µM (inactive) | GI50 (COLO 205): 38.3 µM (inactive) | GI50 (Hs-578T): > 100 µM (inactive) | GI50 (SW-620): > 100 µM (inactive) | GI50 (HOP-92): > 100 µM (inactive) | GI50 (ACHN): > 100 µM (inactive) | GI50 (UACC-62): > 100 µM (inactive) | GI50 (CAKI-1): > 100 µM (inactive) | GI50 (DU-145): > 100 µM (inactive) | GI50 (NCI/ADR-RES): 66.1 µM (inactive) | GI50 (IGROV-1): > 100 µM (inactive) | GI50 (M14): > 100 µM (inactive) | GI50 (K562): 41.6 µM (inactive) | GI50 (SNB-19): > 100 µM (inactive) | GI50 (HCC 2998): > 100 µM (inactive) | GI50 (SK-MEL-28): > 100 µM (inactive) | GI50 (HCT-116): 42.8 µM (inactive) | GI50 (NCI-H23): 69.5 µM (inactive) | GI50 (HL-60): 24.1 µM (inactive) | GI50 (OVCAR-4): 70 µM (inactive) | GI50 (KM12): > 100 µM (inactive) | GI50 (MDA-N): 74.6 µM (inactive) | GI50 (SR): 30 µM (inactive) | GI50 (A549): 81.3 µM (inactive) | GI50 (NCI-H522): 56.6 µM (inactive) | GI50 (MDA-MB-231): > 100 µM (inactive) | GI50 (UO-31): 50.8 µM (inactive) | GI50 (SF-295): 55.2 µM (inactive) | GI50 (SNB-75): 6.19 µM (inactive) | GI50 (OVCAR-8): > 100 µM (inactive) | GI50 (MDA-MB-435): > 100 µM (inactive) | GI50 (PC-3): 88.7 µM (inactive) | GI50 (CCRF-CEM): 42.1 µM (inactive) | GI50 (SK-MEL-5): 26.9 µM (inactive) | GI50 (HCT-15): 94.2 µM | GI50 (SK-OV-3): > 100 µM (inactive) | GI50 (MOLT-4): 30.1 µM (inactive) | GI50 (SF-268): > 100 µM (inactive) | GI50 (Malme-3M): > 100 µM (inactive) | GI50 (T47D): 22.3 µM (inactive) | GI50 (OVCAR-5): > 100 µM (inactive) | GI50 (U-251): > 100 µM (inactive) | GI50 (SN12C): > 100 µM (inactive) | GI50 (UACC-257): > 100 µM (inactive) | GI50 (A498): > 100 µM (inactive) | GI50 (MCF7): 98.6 µM (inactive) | GI50 (786-0): > 100 µM (inactive) | GI50 (LOX IMVI): > 100 µM (inactive) | GI50 (HT-29): 81.8 µM (inactive)

Source: ChEMBL document CHEMBL1201862, “PubChem BioAssay data set” (2004)
